Assay results published in patent US20030147957A1, “Dual release formulation comprising levodopa ethyl ester and a decarboxylase inhibitor in immediate release layer with levodopa ethyl ester and a decarboxylase inhibitor in a controlled release core” (priority 2001, published 2003).
In brackets after ≈: the same amount, converted by molar mass.

Assay: Solubility versus pH at ~22-24° C.
Assay type: physicochemical
Conditions: 23 °C
Excerpt: However, carbidopa and LDEE, examples of two active materials in the composition of the present invention, have different chemical and physical properties and contrasting solubility characteristics especially in acid conditions, i.e., in the gastrointestinal tract (see Table 1).

[1] = aqueous buffer, pH 5.0, ~22-24° C.
[2] = simulated gastric fluid, pH 1.0, ~22-24° C.

| SMILES | solubility [1] | solubility [2] |
| --- | --- | --- |
| C[C@@](Cc1ccc(O)c(O)c1)(NN)C(=O)O [Carbidopa, carbidopa] | 1660 µg/mL (≈ 7.34 mM) | 21400 µg/mL (≈ 94.6 mM) |
| N[C@@H](Cc1ccc(O)c(O)c1)C(=O)O [Levodopa, levodopa] | 4960 µg/mL (≈ 25.2 mM) | 5380 µg/mL (≈ 27.3 mM) |
